Like-named read-outs stand apart in the source and are kept apart here.
What was measured:
TFEB = TFEB translocation assay (TFEB reporter in U2OS cells, imaging); type: cell-based; conditions: Homo sapiens; U2OS cell line with TFEB reporter, 2 hours incubation, nucleus to cytoplasm ratio, normalized to Torin-1; read-out: TFEB Translocation pEC50 (converted)
In short: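 Activity expresses the mean nuclear-to-cytosolic reporter ratio scaled between DMSO (0%) and Torin-1 (100%) controls. Read-out came from high-content imaging of fixed, Hoechst-counterstained U2OS cells carrying mRFP-tagged TFEB after 2 h compound exposure at 37 °C in Opti-MEM with 0.015% Tween 80 and 0.5% DMSO.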

TRPML1 = molecular target: T1, TRPML1 (Homo sapiens, UniProt Q9GZU1); experiment: Cellular TRPML1 assay (FLIPR, GCaMP6f calcium read-out); type: cell-based
T1 construct: expressed in transfected cells; host or cells: HEK T-REx cells stably expressing GCaMP6f and TRPML1
T1 sequence (Q9GZU1 whole entry): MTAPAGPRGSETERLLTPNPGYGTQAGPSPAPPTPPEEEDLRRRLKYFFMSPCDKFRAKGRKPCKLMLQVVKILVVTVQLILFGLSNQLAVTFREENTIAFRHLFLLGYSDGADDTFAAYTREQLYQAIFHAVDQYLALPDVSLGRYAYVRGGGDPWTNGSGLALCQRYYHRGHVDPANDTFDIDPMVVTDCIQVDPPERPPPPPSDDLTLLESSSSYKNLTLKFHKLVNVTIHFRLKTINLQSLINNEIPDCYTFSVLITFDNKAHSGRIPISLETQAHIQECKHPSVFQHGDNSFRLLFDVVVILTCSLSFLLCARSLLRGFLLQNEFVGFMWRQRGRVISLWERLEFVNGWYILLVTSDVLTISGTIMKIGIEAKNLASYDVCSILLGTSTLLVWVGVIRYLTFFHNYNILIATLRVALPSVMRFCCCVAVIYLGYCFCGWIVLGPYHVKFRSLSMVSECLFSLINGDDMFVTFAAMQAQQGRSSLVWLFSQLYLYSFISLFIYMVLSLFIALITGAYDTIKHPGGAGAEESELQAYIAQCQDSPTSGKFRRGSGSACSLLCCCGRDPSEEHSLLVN
In short: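 Read-out is GCaMP6f fluorescence over 300 s after compound addition in Ca2+-free Tyrode's buffer, final DMSO 0.5%, on FLIPR Tetra. Cells are HEK T-REx stably co-expressing the indicator and TRPML1, plated 24 h earlier in Optimem + 0.5% FBS and pre-incubated ~10 min at room temperature.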

[1] = HEKT-REx/GCaMP6f/TRPML1 cells, FLIPR TETRA, kinetic response over 300 seconds, read-out: TRPML1 FLIPR pEC50 (converted)

## O=C(Nc1ccc(OC2CCCC2(F)F)c(F)c1)c1nc(N2CCC3(COC3)C2)oc1CC(F)(F)F (stereo not shown) [Example 19, N-{4-[(2,2-difluorocyclopentyl)oxy]-3-fluorophenyl}-2-{2-oxa-6-azaspiro[3.4]octan-6-yl}-5-(2,2,2-trifluoroethyl)oxazole-4-carboxamide]
TFEB
  EC50: 10 to 1000 nM
TRPML1; [1]
  EC50: 10 to 1000 nM

## O=C(Nc1ccc(N2CCCCC2)c(C(F)(F)F)c1)c1nc(N2CC3(C2)CC(F)(F)C3)oc1CC(F)(F)F [Example 78, 2-{6,6-difluoro-2-azaspiro[3.3]heptan-2-yl}-N-[4-(piperidin-1-yl)-3-(trifluoromethyl)phenyl]-5-(2,2,2-trifluoroethyl)oxazole-4-carboxamide]
TFEB
  EC50: 1000 to 10000 nM
TRPML1; [1]
  EC50: 1000 to 10000 nM

## O=C(Nc1cc(F)c(O[C@@H]2C[C@@H]3C[C@@H]3C2)c(F)c1)c1nc(N2CCC3COCC32)oc1CC(F)(F)F (stereo partly drawn) [Example 144, N-(4-(cis-bicyclo[3.1.0]hexan-3-yloxy)-3,5-difluorophenyl)-2-(hexahydro-1H-furo[3,4-b]pyrrol-1-yl)-5-(2,2,2-trifluoroethyl)oxazole-4-carboxamide]
TFEB
  EC50: 10 to 1000 nM
TRPML1; [1]
  EC50: 10 to 1000 nM

## O=C(Nc1cc(F)c(O[C@@H]2C[C@@H]3C[C@@H]3C2)c(F)c1)c1nc(N2CCCC2)oc1CC(F)(F)F [Example 39, N-(4-(cis-bicyclo[3.1.0]hexan-3-yloxy)-3,5-difluorophenyl)-2-(pyrrolidin-1-yl)-5-(2,2,2-trifluoroethyl)oxazole-4-carboxamide]
TFEB
  EC50: 10 to 1000 nM
TRPML1; [1]
  EC50: 10 to 1000 nM

## O=C(Nc1ccc(OC2CCCC2(F)F)c(F)c1)c1nc(N2CC3(C2)CC(F)(F)C3)oc1CC(F)(F)F (stereo not shown) [Example 17, 2-(6,6-difluoro-2-azaspiro[3.3]heptan-2-yl)-N-(4-((2,2-difluorocyclopentyl)oxy)-3-fluorophenyl)-5-(2,2,2-trifluoroethyl)oxazole-4-carboxamide]
TFEB
  EC50: 10 to 1000 nM
TRPML1; [1]
  EC50: 10 to 1000 nM

## O=C(Nc1cc(F)c(OC2CC3C[C@H]3C2)c(F)c1)c1nc(N2CC3CCOC3C2)oc1CC(F)(F)F (stereo partly drawn) [Example 36, N-(4-{cis-bicyclo[3.1.0]hexan-3-yloxy}-3,5-difluorophenyl)-2-{hexahydro-5H-furo[2,3-c]pyrrol-5-yl}-5-(2,2,2-trifluoroethyl)oxazole-4-carboxamide]
TFEB
  EC50: 10 to 1000 nM
TRPML1; [1]
  EC50: 10 to 1000 nM

## O=C(Nc1ccc(N2CCC(F)(F)CC2)c(F)c1)c1nc(N2CC3(C2)CC(F)(F)C3)oc1CC(F)(F)F [Example 77, 2-{6,6-difluoro-2-azaspiro[3.3]heptan-2-yl}-N-[4-(4,4-difluoropiperidin-1-yl)-3-fluorophenyl]-5-(2,2,2-trifluoroethyl)oxazole-4-carboxamide]
TFEB
  EC50: 1000 to 10000 nM
TRPML1; [1]
  EC50: 1000 to 10000 nM

## Cc1oc(N2CCCC2)nc1C(=O)Nc1ccc(OC2CCCC2)c(F)c1 [Example 120, N-(4-(cyclopentyloxy)-3-fluorophenyl)-5-methyl-2-(pyrrolidin-1-yl)oxazole-4-carboxamide]
TFEB
  EC50: 1000 to 10000 nM
TRPML1; [1]
  EC50: 1000 to 10000 nM

## CCC1(CC)CN(c2nc(C(=O)Nc3cc(F)c(OC4CC5CC(C5)C4)c(F)c3)c(CCF)o2)C1 (stereo not shown) [Example 286, N-(4-(bicyclo[3.1.1]heptan-3-yloxy)-3,5-difluorophenyl)-2-(3,3-diethylazetidin-1-yl)-5-(2-fluoroethyl)oxazole-4-carboxamide]
TFEB
  EC50: 10 to 1000 nM
TRPML1; [1]
  EC50: 10 to 1000 nM

## CCC1(COC)CN(c2nc(C(=O)Nc3cc(C)c(O[C@@H]4C[C@@H]5C[C@@H]5C4)c(F)c3)c(CC(F)(F)F)o2)C1 [Example 125, N-(4-(cis-bicyclo[3.1.0]hexan-3-yloxy)-3-fluoro-5-methylphenyl)-2-(3-(methoxymethyl)-3-ethylazetidin-1-yl)-5-(2,2,2-trifluoroethyl)oxazole-4-carboxamide]
TFEB
  EC50: 10 to 1000 nM
TRPML1; [1]
  EC50: 10 to 1000 nM

## CC(C)Cc1oc(N2CCCC2)nc1C(=O)Nc1ccc(OC2CCCC2(F)F)c(F)c1 (stereo not shown) [Example 111, N-(4-((2,2-difluorocyclopentyl)oxy)-3-fluorophenyl)-5-isobutyl-2-(pyrrolidin-1-yl)oxazole-4-carboxamide]
TFEB
  EC50: 10 to 1000 nM
TRPML1; [1]
  EC50: 1000 to 10000 nM

## O=C(Nc1cc(F)c(OC2CC3C[C@H]3C2)c(F)c1)c1nc(N2C[C@@H]3CCO[C@@H]3C2)oc1CC(F)(F)F (stereo partly drawn) [Example 180, N-(4-(cis-bicyclo[3.1.0]hexan-3-yloxy)-3,5-difluorophenyl)-2-((3aS,6aS)-hexahydro-5H-furo[2,3-c]pyrrol-5-yl)-5-(2,2,2-trifluoroethyl)oxazole-4-carboxamide]
TFEB
  EC50: 10 to 1000 nM
TRPML1; [1]
  EC50: 10 to 1000 nM

## O=C(Nc1ccc(O[C@@H]2C[C@@H]3C[C@@H]3C2)c(F)c1)c1nc(N2CC3(CCOCC3)C2)oc1CC(F)(F)F [Example 171, N-(4-(cis-bicyclo[3.1.0]hexan-3-yloxy)-3-fluorophenyl)-2-(7-oxa-2-azaspiro[3.5]nonan-2-yl)-5-(2,2,2-trifluoroethyl)oxazole-4-carboxamide]
TFEB
  EC50: 10 to 1000 nM
TRPML1; [1]
  EC50: 10 to 1000 nM

## O=C(Nc1cc(F)c(OC2CC3CC(C3)C2)c(F)c1)c1nc(N2CCC3(CC3)C2)oc1CCF (stereo not shown) [Example 284, N-(4-(bicyclo[3.1.1]heptan-3-yloxy)-3,5-difluorophenyl)-5-(2-fluoroethyl)-2-(5-azaspiro[2.4]heptan-5-yl)oxazole-4-carboxamide]
TFEB
  EC50: 10 to 1000 nM
TRPML1; [1]
  EC50: 10 to 1000 nM

## CCc1oc(N2CCCC2)nc1C(=O)Nc1cc(F)c(OC2CC3CC(C3)C2)c(F)c1 (stereo not shown) [Example 229, N-(4-(bicyclo[3.1.1]heptan-3-yloxy)-3,5-difluorophenyl)-5-ethyl-2-(pyrrolidin-1-yl)oxazole-4-carboxamide]
TFEB
  EC50: 10 to 1000 nM
TRPML1; [1]
  EC50: 10 to 1000 nM

## O=C(Nc1cc(F)c(N2C3CCCC2CC3)c(F)c1)c1nc(N2CC3COCC3C2)oc1CC(F)(F)F (stereo not shown) [Example 201, N-(4-(8-azabicyclo[3.2.1]octan-8-yl)-3,5-difluorophenyl)-2-(tetrahydro-1H-furo[3,4-c]pyrrol-5(3H)-yl)-5-(2,2,2-trifluoroethyl)oxazole-4-carboxamide]
TFEB
  EC50: 10 to 1000 nM
TRPML1
  EC50: 10 to 1000 nM

## CCc1oc(N2CC(C)(OC)C2)nc1C(=O)Nc1cc(F)c(O[C@@H]2C[C@@H]3C[C@@H]3C2)c(Cl)c1 [Example 223, N-(4-(cis-bicyclo[3.1.0]hexan-3-yloxy)-3-chloro-5-fluorophenyl)-5-ethyl-2-(3-methoxy-3-methylazetidin-1-yl)oxazole-4-carboxamide]
TFEB
  EC50: 10 to 1000 nM
TRPML1; [1]
  EC50: 10 to 1000 nM

## CCC1(CC)CN(c2nc(C(=O)Nc3cc(F)c(OC4CC5CC(C5)C4)c(F)c3)c(CC(F)(F)F)o2)C1 (stereo not shown) [Example 145, N-(4-(bicyclo[3.1.1]heptan-3-yloxy)-3,5-difluorophenyl)-2-(3,3-diethylazetidin-1-yl)-5-(2,2,2-trifluoroethyl)oxazole-4-carboxamide]
TFEB
  EC50: 10 to 1000 nM
TRPML1; [1]
  EC50: 10 to 1000 nM

## CCC1(COC)CN(c2nc(C(=O)Nc3cc(F)c(O[C@@H]4C[C@@H]5C[C@@H]5C4)c(F)c3)c(CC(F)(F)F)o2)C1 [Example 165, N-(4-(cis-bicyclo[3.1.0]hexan-3-yloxy)-3,5-difluorophenyl)-2-(3-ethyl-3-(methoxymethyl)azetidin-1-yl)-5-(2,2,2-trifluoroethyl)oxazole-4-carboxamide]
TFEB
  EC50: 10 to 1000 nM
TRPML1; [1]
  EC50: 10 to 1000 nM

## Cc1oc(N2CCCC2)nc1C(=O)Nc1ccc(N2CCCCC2)c(F)c1 [Example 112, N-(3-fluoro-4-(piperidin-1-yl)phenyl)-5-methyl-2-(pyrrolidin-1-yl)oxazole-4-carboxamide]
TFEB
  EC50: 1000 to 10000 nM
TRPML1; [1]
  EC50: 1000 to 10000 nM

## Cc1cc(NC(=O)c2nc(N3CC(C)(CO)C3)oc2CC(F)(F)F)cc(F)c1O[C@@H]1C[C@@H]2C[C@@H]2C1 [Example 128]
TFEB
  EC50: 10 to 1000 nM
TRPML1; [1]
  EC50: 10 to 1000 nM

## COC1(C)CN(c2nc(C(=O)Nc3cc(C)c(NC4C5CCCC4CC5)c(F)c3)c(CC(F)(F)F)o2)C1 (stereo not shown) [Example 195, N-(4-(bicyclo[3.2.1]octan-8-ylamino)-3-fluoro-5-methylphenyl)-2-(3-methoxy-3-methylazetidin-1-yl)-5-(2,2,2-trifluoroethyl)oxazole-4-carboxamide]
TFEB
  EC50: 10 to 1000 nM
TRPML1; [1]
  EC50: 10 to 1000 nM

## O=C(Nc1ccc(OC2CCCC2)c(F)c1)c1nc(N2CC3(C2)CC(F)(F)C3)oc1CC(F)(F)F [Example 48, N-[4-(cyclopentyloxy)-3-fluorophenyl]-2-{6,6-difluoro-2-azaspiro[3.3]heptan-2-yl}-5-(2,2,2-trifluoroethyl)oxazole-4-carboxamide]
TFEB
  EC50: 10 to 1000 nM
TRPML1; [1]
  EC50: 1000 to 10000 nM

## O=C(Nc1ccc(O[C@@H]2C[C@@H]3C[C@@H]3C2)c(F)c1)c1nc(N2CC3CC3C2)oc1CC(F)(F)F (stereo partly drawn) [Example 156, 2-(3-azabicyclo[3.1.0]hexan-3-yl)-N-(4-(cis-bicyclo[3.1.0]hexan-3-yloxy)-3-fluorophenyl)-5-(2,2,2-trifluoroethyl)oxazole-4-carboxamide]
TFEB
  EC50: 10 to 1000 nM
TRPML1; [1]
  EC50: 10 to 1000 nM

## O=C(Nc1ccc(OC2CCCC2(F)F)c(F)c1)c1nc(N2CCOCC2)oc1CC(F)(F)F (stereo not shown) [Example 6, N-(4-((2,2-difluorocyclopentyl)oxy)-3-fluorophenyl)-2-morpholino-5-(2,2,2-trifluoroethyl)oxazole-4-carboxamide]
TFEB
  EC50: 10 to 1000 nM
TRPML1; [1]
  EC50: 1000 to 10000 nM

## CCC1(CC)CN(c2nc(C(=O)Nc3cc(C)c(O[C@@H]4C[C@@H]5C[C@@H]5C4)c(F)c3)c(CC(F)(F)F)o2)C1 [Example 131, N-(4-(cis-bicyclo[3.1.0]hexan-3-yloxy)-3-fluoro-5-methylphenyl)-2-(3,3-diethylazetidin-1-yl)-5-(2,2,2-trifluoroethyl)oxazole-4-carboxamide]
TFEB
  EC50: 10 to 1000 nM
TRPML1; [1]
  EC50: 10 to 1000 nM

Source: US12098145B2 (Libra Therapeutics, Inc., priority 2022, dated 2024)
